Columns and labels:
SH-SY5Y cells [1] = assay: H2O2-induced neuronal apoptosis after pre-treatment; format: cell-based; details: for toxic effects in SH-SY5Y cells: SUL 0.63 μM, L-DOPA 25 μM
Experimental: It was also evaluated whether the combination could have synergistic effects against neuronal apoptosis induced by H2O2, an oxidant agent in the CNS. In particular, apoptosis is measured 15 h later than 3 h treatment with H2O2 (300 μM).

[2] = preliminary phase I study (Shapiro et al. 2006); cited from earlier work
neurons = details: prolonged SUL treatment, in vitro; cited from earlier work
SH-SY5Y cells [3] = assay: L-DOPA-induced neurotoxicity, pulse/chase treatment, Annexin-V/propidium iodide double staining

Structure (SMILES) | toxic effects in SH-SY5Y cells (SH-SY5Y cells [1]) | toxicity in humans [2] | effect against 1 methyl-4-phenyl-1,2,3,6-tetrahydropyridine (neurons) | protection of neurons against 6-hydroxydopamine (neurons) | protection of neurons against H2O2 damage (neurons) | L-DOPA-induced apoptosis, post-treatment (SH-SY5Y cells [3]; SUL 2.5 μM added after L-DOPA (400 μM) treatment, FIG. 3) | L-DOPA-induced apoptosis, co-treatment (SH-SY5Y cells [3]; SUL 0.63-2.5 μM co-treated with L-DOPA 400 μM, FIG. 2) | H2O2-induced apoptosis after L-DOPA pre-treatment (SH-SY5Y cells [1]; pre-treatment 24 h, L-DOPA 25-100 μM tested, effect at more than 50 μM, H2O2 300 μM 3 h, read 15 h later, FIG. 4)
C[S+]([O-])CCCCN=C=S (stereo not drawn) [SUL, 4-(methylsulfinyl)butyl isothiocyanate] | did not show any toxic effects | absence of toxicity | does not show any effect | protects neurons | protects neurons | significant decrease of apoptosis | dose-dependent inhibitory effect | 
N[C@@H](Cc1ccc(O)c(O)c1)C(=O)O [L-DOPA, 3,4-dihydroxyphenylalanine] | did not show any toxic effects |  |  |  |  |  |  | significantly decreased H2O2-induced apoptosis

From patent publication US20100260737A1, “COMBINATION BETWEEN AN ISOTHIOCYANATE AND LEVODOPA FOR PARKINSON'S DISEASE TREATMENT” (priority 2007, published 2010)
